Source: US20180171280A1, “CELL CULTURE EXPOSURE SYSTEM (CCES)” (priority 2016, published 2018)

Columns and labels:
BEAS-2B cells = assay: CellTiter-Glo Luminescent Cell Viability Assay after ALI exposure in the CCES, BEAS-2B cells; assay type: cell-based, human; details: 2 h ALI exposure, 4 h post-exposure, Inc. Ct. = 100; for CellTiter-Glow viability, Average: average of 3 experiments
Description: (§1) The Cell Culture Exposure System (CCES) provides the ability to expose cultured mammalian cells to airborne chemicals at ALI conditions in a 24-well format.
The BEAS-2B cell line, obtained from ATTC, is an immortalized human bronchial epithelial lung cell.
Cells were grown out on T75 cm^2 flasks in complete Keratinocyte Growth Media (KGM) (KGM-Gold Bullet Kit, Lonza®). Cells were passaged and seeded onto 6.5 mm (24-well format) permeable (0.4-μm pore size) Transwell polyester membranes at passages 55 and 56. Prior to seeding, Transwells were coated with PureCol® bovine collagen (Advanced Biometrix) at a density of 10 μg/cm^2. Cells were seeded at 3.0×10^4 cells per Transwell membranes 48 h prior to exposure and at 1.5×10^4 per Transwell membrane 72 h prior to exposure to obtain a confluent monolayer. Cells were seeded on 4 inserts per exposure condition for each run.
(§2) Cells were placed into new 24-well plates with fresh growth media and put at ALI 2 h prior to exposure. […] Control cells were exposed simultaneously to clean air for 2 h in a separate chamber. Another set of control cells were kept at ALI in an incubator (37° C., 5% CO2) for 2 h. After the exposure, cells were placed in an incubator (37° C., 5% CO2) for 4 h. A total of three exposures were conducted for each cell type.
(§3) The CellTiter-Glo® Luminescent Cell Viability Assay (Promega) determines the number of viable cells based on quantification of the ATP present; an indicator of metabolically active cells. […] Two inserts per exposure condition were measured for each run.

Human primary lung cells = assay: CellTiter-Glo Luminescent Cell Viability Assay after ALI exposure in the CCES, human primary lung cells; assay type: cell-based; details: 2 h ALI exposure, 4 h post-exposure, Inc. Ct. = 100; for CellTiter-Glow viability, Average: average of 3 experiments
Description: as §1
Human primary lung cells were collected by cytology brush biopsy during bronchoscopy at EPA clinical facility in Chapel Hill. Cells were cultured by standard procedures and were provided to EPA/RTP.
Cells were cultured and plated onto Transwell membranes and grown out for 28 days as described in OP.
as §2, §3

## C=CC=C [1,3-Butadiene, 1,3-butadiene]
BEAS-2B cells; 0.16 ppm
  CellTiter-Glow Viability, May 10, 2017: 96.27
  CellTiter-Glow Viability, May 11, 2017: 87.14
  CellTiter-Glow Viability, May 12, 2017: 96.95
  CellTiter-Glow viability, Average: 93.45
BEAS-2B cells; 0.5 ppm
  CellTiter-Glow Viability, May 10, 2017: 101.8
  CellTiter-Glow Viability, May 11, 2017: 89.3
  CellTiter-Glow Viability, May 12, 2017: 96.1
  CellTiter-Glow viability, Average: 95.73
BEAS-2B cells; 1.7 ppm
  CellTiter-Glow Viability, May 10, 2017: 94.35
  CellTiter-Glow Viability, May 11, 2017: 94.49
  CellTiter-Glow Viability, May 12, 2017: 95.83
  CellTiter-Glow viability, Average: 94.89
BEAS-2B cells; 5 ppm
  CellTiter-Glow Viability, May 10, 2017: 105.3
  CellTiter-Glow Viability, May 11, 2017: 81.9
  CellTiter-Glow Viability, May 12, 2017: 96.8
  CellTiter-Glow viability, Average: 94.66
BEAS-2B cells; 16 ppm
  CellTiter-Glow Viability, May 10, 2017: 101.5
  CellTiter-Glow Viability, May 11, 2017: 87.31
  CellTiter-Glow Viability, May 12, 2017: 79.14
  CellTiter-Glow viability, Average: 89.33
BEAS-2B cells; 50 ppm
  CellTiter-Glow Viability, May 10, 2017: 105.1
  CellTiter-Glow Viability, May 11, 2017: 71.1
  CellTiter-Glow Viability, May 12, 2017: 9.72
  CellTiter-Glow viability, Average: 61.99
Human primary lung cells; 0.16 ppm
  CellTiter-Glow viability, May 3, 2017: 110.9
  CellTiter-Glow viability, May 4, 2017: 99.9
  CellTiter-Glow viability, May 5, 2017: 90.1
  CellTiter-Glow viability, Average: 100.3
Human primary lung cells; 0.5 ppm
  CellTiter-Glow viability, May 3, 2017: 118.5
  CellTiter-Glow viability, May 4, 2017: 86.3
  CellTiter-Glow viability, May 5, 2017: 94.2
  CellTiter-Glow viability, Average: 99.6
Human primary lung cells; 1.7 ppm
  CellTiter-Glow viability, May 3, 2017: 120.3
  CellTiter-Glow viability, May 4, 2017: 91.8
  CellTiter-Glow viability, May 5, 2017: 101.4
  CellTiter-Glow viability, Average: 104.5
Human primary lung cells; 5 ppm
  CellTiter-Glow viability, May 3, 2017: 122.0
  CellTiter-Glow viability, May 4, 2017: 112.0
  CellTiter-Glow viability, May 5, 2017: 98.6
  CellTiter-Glow viability, Average: 110.8
Human primary lung cells; 16 ppm
  CellTiter-Glow viability, May 3, 2017: 128.1
  CellTiter-Glow viability, May 4, 2017: 101.3
  CellTiter-Glow viability, May 5, 2017: 98.9
  CellTiter-Glow viability, Average: 109.4
Human primary lung cells; 50 ppm
  CellTiter-Glow viability, May 3, 2017: 104.7
  CellTiter-Glow viability, May 4, 2017: 92.7
  CellTiter-Glow viability, May 5, 2017: 95.4
  CellTiter-Glow viability, Average: 97.6
